Each structure is given as a SMILES string.

The target of the test is T1, human NTPDase2 (Homo sapiens, UniProt Q9Y5L3).
T1 sequence (Q9Y5L3 1-495): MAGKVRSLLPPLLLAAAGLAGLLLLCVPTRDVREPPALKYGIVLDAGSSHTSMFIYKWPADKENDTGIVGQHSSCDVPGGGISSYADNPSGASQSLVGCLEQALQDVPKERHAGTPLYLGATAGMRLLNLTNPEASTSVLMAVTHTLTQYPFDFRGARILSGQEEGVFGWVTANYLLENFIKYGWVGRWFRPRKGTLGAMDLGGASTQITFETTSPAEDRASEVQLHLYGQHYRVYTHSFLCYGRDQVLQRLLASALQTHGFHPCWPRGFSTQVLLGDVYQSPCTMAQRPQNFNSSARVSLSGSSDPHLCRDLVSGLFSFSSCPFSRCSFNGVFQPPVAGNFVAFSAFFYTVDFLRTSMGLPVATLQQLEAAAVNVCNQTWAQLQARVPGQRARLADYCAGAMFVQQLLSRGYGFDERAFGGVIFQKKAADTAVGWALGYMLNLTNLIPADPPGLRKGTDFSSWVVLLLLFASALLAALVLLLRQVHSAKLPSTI
The experiment in a line: Capillary electrophoresis assay for human NTPDase2. It counts as biochemical. The conditions noted are these: ATP (100 μM) as substrate. The procedure:
Inhibitory activity of the CD73 inhibitors 2 and 20 at human NTPDases 1, 2, 3, and 8 was investigated using ATP (100 μM) as a substrate according to previously published procedures.^24 ATP and 2 were co-incubated with recombinantly expressed human NTPDases at 37° C. for 30 min, and the enzymatic reaction was terminated by heating at 90° C. for 10 min. The amount of enzyme preparation was adjusted to ensure 10-20% of substrate conversion. The formed products were separated by capillary electrophoresis (CE) and individually quantitated by diode array detection (DAD) at a wavelength of 260 nm. For inhibition analysis, at least three independent experiments were performed each in triplicate. The inhibition of the enzyme activity was calculated in relation to the positive control without inhibitor and plotted by GraphPad Prism 8 software (GraphPad software, San Diego, CA, USA) (for results see Table 2 and Table 3).
Test compounds were investigated at a concentration of 50 μM, and 100 μM ATP substrate according to published procedures.^24 Recombinantly expressed human NTPDases were employed. The amount of enzyme preparation was adjusted to ensure 10-20% of substrate conversion. […] The inhibition of the enzyme activity was calculated in relation to the positive control without inhibitor and plotted in GraphPad Prism 8 software (GraphPad software, San Diego, CA, USA). […]

Consider `CCCN(Cc1ccc(-c2cn(CCF)nn2)cc1)c1nc(Cl)nc2c1ncn2[C@@H]1O[C@H](COP(=O)(O)CP(=O)(O)O)C(O)C1O` (some centres unmarked) [Compound 2], for which the IC50 (commonly the concentration at which inhibition is half-maximal) was greater than 50 µM.

In turn, `O=C(NCCCCCCNC(=O)c1ccc2c(c1)C1(OC2=O)c2ccc(O)cc2Oc2cc(O)ccc21)c1ccc(CNc2nc(Cl)nc3c2ncn3[C@@H]2O[C@H](COP(=O)(O)CP(=O)(O)O)[C@@H](O)[C@H]2O)cc1` [Compound 20, (((((2R,3S,4R,5R)-5-(2-chloro-6-((4-((6-(3′,6′-dihydroxy-3-oxo-3H-spiro[isobenzofuran-1,9′-xanthene]-6-carboxamido)-hexyl)carbamoyl)benzyl)amino)-9H-purin-9-yl)-3,4-dihydroxytetrahydrofuran-2-yl)methoxy)(hydroxy)phosphoryl)methyl)phosphonic acid] returned an IC50 of less than 50 µM.

These data come from patent US20250382322A1, “DIAGNOSTICS FOR DETECTING ECTO-5'-NUCLEOTIDASE (CD73)” (EBERHARD KARLS UNIVERSITÄT TÜBINGEN, priority 2022, published 2025).
